Values of other authors, collected in PMC3341490 (Nuclear Medicine and Biology, 2012).

Columns and labels:
[1] = copper complex; ref [24]
[2] = system: GRPR-expressing, PC-3 xenografted tumors in SCID mice

| Compound | stability constant (log K) [1] | PC-3 tumor uptake ([2]; 1 hour, ref [18]-[19]) [% ID/g] | retention of radioactivity in the tumor, relative to 1 h ([2]; 24 h vs 1 h, ref [19]) [%] |
| --- | --- | --- | --- |
| O=C(O)CN1CCCN(CC(=O)O)CCN(CC(=O)O)CCCN(CC(=O)O)CC1 [TETA] | 21.7 |  |  |
| O=C(O)CN1CCN(CC(=O)O)CCN(CC(=O)O)CCN(CC(=O)O)CC1 [DOTA, 1,4,7,10-tetraazacyclododecane-1,4,7,10-tetraacetic acid] | 22.3 |  |  |
| O=C(O)CN1CCN(CC(=O)O)CCN(CC(=O)O)CC1 [NOTA, 1,4,7-triazacyclononane-1,4,7-triacetic acid] | 21.6 |  |  |
| ^64Cu-NO2A-Aoc-BN(7-14) |  | 3.59 | 28 |
